# Legend:
# PYL9 = target: T1, PYL9 (Arabidopsis thaliana, UniProt Q84MC7); assay: Protein dephosphorylation enzyme activity test, PYL9; assay type: biochemical, thale cress; details: control = 100%
# T1 construct: 6xHis (N); made in house; host or cells: Escherichia coli BL21-codonplus(DE3)-RIPL (PYL); BL21(DE3)pLysS (HAB1)
# T1 sequence (Q84MC7 1-187): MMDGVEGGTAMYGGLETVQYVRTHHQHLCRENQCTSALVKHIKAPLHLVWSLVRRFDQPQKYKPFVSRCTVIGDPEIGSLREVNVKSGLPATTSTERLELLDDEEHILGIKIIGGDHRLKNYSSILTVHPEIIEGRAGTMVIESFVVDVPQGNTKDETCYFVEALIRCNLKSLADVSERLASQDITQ
# Description: A plasmid (pGex-2T-GST-HAB1 or pET28-6×His-PYL) encoded with PYR/PYL/RCAR proteins (PYL, abscisic acid receptor) or protein dephosphorylation enzyme HAB1 of thale cress was transformed to Escherichia coli (HAB1:BL21(DE3)pLysS, PYL:BL21-codonplus(DE3)-RIPL). Isopropyl-β-thiogalactopyranoside was added to the culture broth, which had been subjected to pre-culture (30° C., 180 rpm, 15 hours) and main culture (30° C., 180 rpm, 4 hours), and the protein-expressed (16° C., 150 rpm, 18 hours) crude enzyme solution was purified using FPLC thereby preparing the recombined PYL (PYR1, PYL1-6, PYL8-10) and HAB1. β-Mercaptoethanol, a manganese chloride aqueous solution, HAB1, PYL, a solution of the sample in dimethylsulfoxide and ultrapure water were sequentially added to a 96-well plate, allowed to stand at 22° C. for 30 minutes. Subsequently p-nitrophenylphosphate, which is the artificial substrate of HAB1, was added thereto to start the reaction, and the plate was placed in a microplate reader (TECAN, Infinite™ N200 NanoQuant). The absorbance at 405 nm due to p-nitrophenol, which is the hydrolysate of p-nitrophenylphosphate, was measured 3 minutes later from the reaction initiation, and HAB1 activity was calculated by the following formula (2). Note that the fraction to which only dimethylsulfoxide was added was considered to be the control and the activity thereof was defined as 100%. […] HAB1 specific activity (%)=Absorbance when sample was added/Absorbance of control×100 (2)
# [1] = system: thale cress (Arabidopsis thaliana, Col-0) seedlings; assay: Thale cress growth test; assay type: in vivo; details: sprayed once a day, three weeks' culture
# Description: Seeds of thale cress (Arabidopsis thaliana, Col-0) were sequentially immersed for 1 minute respectively in 500 μL of an aqueous solution of 5% bleach+1% SDS, 500 μL of a 70% aqueous solution of ethanol and 500 μL of a 70% aqueous solution of ethanol, washed five times in 1 mL of sterilized water, and then suspended in a 0.1% aqueous solution of agar. 25 mL each of germination medium (containing ½ MS medium inorganic salts) sterilized in an autoclave was added to a sterilized plastic petri dish, in which 60 to 80 seeds suspended in the 0.1% aqueous solution of agar were planted and, in a dark place, the seeds were vernilized at 4° C. for 3 days. The seeds were cultured at 22° C. under continuous light for 10 days. 40 g […] of sterilized soil (organic culture soil:vermiculite=1:1) was added to a plastic pot (50 mm×50 mm×50 mm, 35 mm bottom surface×35 mm height). Six plastic pots thus provided were placed in a 3000 mL-tray, 300 mL (depth 10 mm) of an aqueous solution of 1000-fold diluted HYPONeX (tradename (registered trademark), product of HYPONeX JAPAN CORP., LTD.) was added thereto and five roots each of thale cress seedlings were transplanted from the plastic petri dish. The seedlings were cultured at 22° C. under conditions of 16 hour light period-8 hour dark period, and 1 mL of an aqueous solution (prepared so as the final concentration of the compound of Example 7 to be 50 μM) of 0.1% DMSO (containing the compound of Example 7)+0.1% Approach BI (tradename (registered trademark), product of Kao Corporation) was sprayed once a day. Further, 300 mL of an aqueous solution of 2000-fold diluted HYPONeX was added every week. The same treatment as above was carried out using the compound of Comparative Example 1. Note that the seedlings, to which 1 mL of an aqueous solution of 0.1% DMSO+0.1% Approach BI without containing the above compound was sprayed once a day, were used as controls. […]
# [2] = system: lettuce (Lactuca saliva) seeds; assay: Lettuce seed germination test; assay type: in vivo; details: co-applied with ABA
# [3] = system: bok choy (Brassica rapa var. chinensis) seeds; assay: Bok choy seed germination test; assay type: in vivo; details: co-applied with ABA
HAB1 Specific activity (%) PYL9 (PYL9; ABA + compound) [%],SMILES,HAB1 Specific activity (%) PYL9 (PYL9; sample alone) [%],"Growth of thale cress ([1]; only ABA, 5 μM)",Recovery of seed germination rate decreased by ABA [2],Recovery of seed germination rate decreased by ABA [3],Growth suppression effect of ABA on thale cress ([1]; 50 μM compound co-applied with 5 μM ABA)
,"CC1=CC(=O)CC(C)(C)[C@@]1(O)/C=C/C(C)=C\C(=O)O [ABA, abscisic acid]",31,the growth of thale cress was notably suppressed,,,
90,"CC1=C[C@@H](OCC#Cc2ccccc2)CC(C)(C)[C@@]1(O)/C=C/C(C)=C\C(=O)O [Example 1, (2Z,4E)-5-((1S,4S)-1-hydroxy-2,6,6-trimethyl-4-((3-phenylprop-2-yn-1-yl)oxy)cyclohex-2-en-1-yl)-3-methylpenta-2,4-dienoic acid]",111,,recovered the seed germination rates once decreased by ABA,recovered the seed germination rates once decreased by ABA,
,CC1=C[C@@H](OCC#Cc2ccc(C)cc2)CC(C)(C)[C@@]1(O)/C=C/C(C)=C\C(=O)O [Example 7],,,,,the growth suppression effect by ABA was notably improved and the thale cress growth was recovered to the same extent as the controls

# From US10125095B2, “Abscisic acid derivative” (NATIONAL UNIVERSITY CORPORATION SHIZUOKA UNIVERSITY, priority 2014, dated 2018)
